ChEMBL document CHEMBL1201862, “PubChem BioAssay data set” (2004)
Calls of active or inactive are those of the source.

Key:
[1] = LGR2 antagonists, dose response, cell-based, HEK293, CRE-luciferase reporter, cherry pick, set 2 (AID 743343); assay type: functional;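 also: transfected cells were stimulated with diluted bursicon conditioned medium after compound addition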
[2] = A549 cell cytotoxicity, dose response, cytotoxicity control, plate reader, cherry-pick, antagonist series (AID 743412); assay type: functional, cell-based
[3] = MC4R antagonists, dose response, counter-screen for LGR2 antagonist project, cell-based, plate reader, cherry pick (AID 743444); assay type: functional;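 also: transfected HEK 293 cells stimulated with alpha-MSH peptide; potency of inhibitors of the alpha-MSH evoked signal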
HEK293 = assay: inhibitors of LMP1-driven NF-kB reporter, dose response, cell-based, HEK293, luciferase, cherry-pick (AID 588343); assay type: functional; settings: Homo sapiens
[4] = molecular target: T1, Fructose-bisphosphate aldolase (Mycobacterium tuberculosis, UniProt P9WQA3); assay: Fluorescence-based biochemical high throughput dose response assay for inhibitors of the fructose-bisphosphate aldolase (FBA) of M. tuberculosis.; assay type: functional
T1 sequence (P9WQA3 whole entry): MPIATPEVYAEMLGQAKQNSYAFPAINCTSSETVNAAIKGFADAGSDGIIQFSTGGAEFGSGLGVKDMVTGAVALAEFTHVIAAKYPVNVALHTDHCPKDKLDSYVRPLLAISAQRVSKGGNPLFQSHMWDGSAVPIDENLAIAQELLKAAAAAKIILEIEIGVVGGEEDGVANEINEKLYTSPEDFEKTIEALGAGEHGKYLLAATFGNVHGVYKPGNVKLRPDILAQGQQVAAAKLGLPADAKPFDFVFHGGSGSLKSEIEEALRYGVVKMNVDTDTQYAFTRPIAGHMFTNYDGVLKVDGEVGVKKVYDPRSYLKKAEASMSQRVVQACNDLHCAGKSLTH

[5] = human group III sPLA2 inhibitors, dose response, biochemical, QFRET, IC50 (AID 743457);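 also: green fluorescence rise as the enzyme cleaves BODIPY PC-A2 in liposomes; potency for inhibition of the enzyme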
[6] = HEK293T cytotoxicity, dose response, cytotoxicity control for miR-122 modulator project, cell-based, inhibitor set, cherry-pick, set 2 (AID 720697); assay type: functional
[7] = HEK293 cell cytotoxicity, dose response, cytotoxicity control, plate reader, cherry-picked samples (AID 743446); assay type: functional, cell-based
[8] = Counterscreen for activators of the function of SWI/SNF related, matrix associated, actin dependent regulator of chromatin, subfamily a, member 2 (SMARCA2, BRM): Luminescence-based cell-based high throughput dose response assay to identify non-selective compounds using the VP16 reporter assay.; assay type: functional
[9] = molecular target: SWI/SNF-related matrix-associated actin-dependent regulator of chromatin subfamily A member 2 (Homo sapiens, UniProt P51531); assay: Luminescence-based cell-based high throughput dose response assay to identify activators of the function of SWI/SNF related, matrix associated, actin dependent regulator of chromatin, subfamily a, member 2 (SMARCA2, BRM).; assay type: functional
Sequence of SWI/SNF-related matrix-associated actin-dependent regulator of chromatin subfamily A member 2 (P51531 whole entry): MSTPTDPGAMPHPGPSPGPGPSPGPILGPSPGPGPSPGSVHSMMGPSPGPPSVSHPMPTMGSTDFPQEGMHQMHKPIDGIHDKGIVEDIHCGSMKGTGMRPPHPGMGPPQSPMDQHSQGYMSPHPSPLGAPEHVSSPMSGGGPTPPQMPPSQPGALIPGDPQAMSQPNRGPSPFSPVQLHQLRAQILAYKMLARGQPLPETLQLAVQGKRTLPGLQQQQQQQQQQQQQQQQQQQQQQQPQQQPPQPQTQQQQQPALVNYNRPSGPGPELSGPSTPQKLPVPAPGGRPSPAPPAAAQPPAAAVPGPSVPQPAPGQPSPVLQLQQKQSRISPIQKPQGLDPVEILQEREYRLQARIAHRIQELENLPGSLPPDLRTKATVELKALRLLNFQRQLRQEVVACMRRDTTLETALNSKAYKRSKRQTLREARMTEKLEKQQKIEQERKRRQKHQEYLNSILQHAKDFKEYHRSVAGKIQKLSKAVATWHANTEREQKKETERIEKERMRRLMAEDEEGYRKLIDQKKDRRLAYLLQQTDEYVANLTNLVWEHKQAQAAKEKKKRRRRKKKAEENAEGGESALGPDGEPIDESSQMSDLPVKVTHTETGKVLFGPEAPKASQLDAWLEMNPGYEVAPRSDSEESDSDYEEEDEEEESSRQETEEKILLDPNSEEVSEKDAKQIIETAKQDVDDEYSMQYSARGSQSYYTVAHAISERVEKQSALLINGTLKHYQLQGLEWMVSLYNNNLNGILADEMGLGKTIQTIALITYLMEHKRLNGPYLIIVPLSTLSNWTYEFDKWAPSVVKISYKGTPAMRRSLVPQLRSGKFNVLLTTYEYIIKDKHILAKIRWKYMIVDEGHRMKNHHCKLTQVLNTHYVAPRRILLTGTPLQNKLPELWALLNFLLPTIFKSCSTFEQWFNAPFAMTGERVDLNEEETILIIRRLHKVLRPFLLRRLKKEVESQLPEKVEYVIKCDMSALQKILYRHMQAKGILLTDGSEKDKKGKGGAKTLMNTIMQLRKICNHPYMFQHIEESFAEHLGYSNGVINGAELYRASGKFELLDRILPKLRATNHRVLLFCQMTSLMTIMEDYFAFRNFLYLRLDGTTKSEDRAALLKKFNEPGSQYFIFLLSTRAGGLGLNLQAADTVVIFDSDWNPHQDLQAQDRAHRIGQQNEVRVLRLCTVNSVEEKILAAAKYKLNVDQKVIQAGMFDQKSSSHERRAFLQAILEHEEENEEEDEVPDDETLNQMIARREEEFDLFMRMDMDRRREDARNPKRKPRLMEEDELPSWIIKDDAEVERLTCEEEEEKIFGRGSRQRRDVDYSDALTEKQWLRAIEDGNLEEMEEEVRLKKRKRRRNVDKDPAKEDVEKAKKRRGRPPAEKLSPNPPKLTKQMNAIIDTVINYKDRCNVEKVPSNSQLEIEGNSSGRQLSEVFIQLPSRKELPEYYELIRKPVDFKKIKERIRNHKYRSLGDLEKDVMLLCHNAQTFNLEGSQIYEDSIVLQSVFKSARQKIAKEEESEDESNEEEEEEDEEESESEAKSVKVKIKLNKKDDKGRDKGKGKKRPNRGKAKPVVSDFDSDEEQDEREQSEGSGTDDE

[10] = molecular target: T2, Sentrin-specific protease 6 (Homo sapiens, UniProt Q9GZR1); assay type: functional;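 also: Luminescence-based dose-response confirmatory assay of SENP6 inhibition, following up an ultra-high-throughput screen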
T2 sequence (Q9GZR1 whole entry): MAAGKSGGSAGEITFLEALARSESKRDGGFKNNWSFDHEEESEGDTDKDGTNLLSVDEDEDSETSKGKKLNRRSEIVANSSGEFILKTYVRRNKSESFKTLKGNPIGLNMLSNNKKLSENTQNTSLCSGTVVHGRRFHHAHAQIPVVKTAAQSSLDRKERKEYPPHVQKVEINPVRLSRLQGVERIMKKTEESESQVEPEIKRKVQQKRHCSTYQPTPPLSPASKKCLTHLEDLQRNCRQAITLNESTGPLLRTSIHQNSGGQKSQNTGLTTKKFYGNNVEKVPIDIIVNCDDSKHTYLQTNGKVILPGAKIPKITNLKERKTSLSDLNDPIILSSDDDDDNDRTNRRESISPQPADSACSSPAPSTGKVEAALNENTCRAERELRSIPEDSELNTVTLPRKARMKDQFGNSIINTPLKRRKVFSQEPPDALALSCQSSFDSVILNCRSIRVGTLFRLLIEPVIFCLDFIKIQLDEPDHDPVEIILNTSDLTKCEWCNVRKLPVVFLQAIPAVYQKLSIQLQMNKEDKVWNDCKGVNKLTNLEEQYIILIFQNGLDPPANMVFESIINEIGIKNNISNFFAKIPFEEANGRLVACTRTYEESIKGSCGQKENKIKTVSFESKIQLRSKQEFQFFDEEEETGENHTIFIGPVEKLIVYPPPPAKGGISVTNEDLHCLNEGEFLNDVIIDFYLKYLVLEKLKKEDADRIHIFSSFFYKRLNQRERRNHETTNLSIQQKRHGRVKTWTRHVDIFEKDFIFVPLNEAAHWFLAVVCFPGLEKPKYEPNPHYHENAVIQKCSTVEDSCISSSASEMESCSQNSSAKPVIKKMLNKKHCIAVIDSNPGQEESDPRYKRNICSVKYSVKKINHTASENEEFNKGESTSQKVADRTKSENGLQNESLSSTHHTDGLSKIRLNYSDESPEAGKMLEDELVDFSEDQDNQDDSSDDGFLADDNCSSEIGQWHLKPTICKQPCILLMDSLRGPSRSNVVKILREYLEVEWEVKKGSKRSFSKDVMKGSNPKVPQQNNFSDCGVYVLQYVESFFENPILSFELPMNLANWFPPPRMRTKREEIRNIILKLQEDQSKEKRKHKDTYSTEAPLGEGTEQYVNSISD

[11] = molecular target: T3, Sentrin-specific protease 7 (Homo sapiens, UniProt Q9BQF6); assay type: functional;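 also: Luminescence-based dose-response confirmation of ultra-high-throughput screening hits, measuring inhibition of SENP7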
T3 sequence (Q9BQF6 whole entry): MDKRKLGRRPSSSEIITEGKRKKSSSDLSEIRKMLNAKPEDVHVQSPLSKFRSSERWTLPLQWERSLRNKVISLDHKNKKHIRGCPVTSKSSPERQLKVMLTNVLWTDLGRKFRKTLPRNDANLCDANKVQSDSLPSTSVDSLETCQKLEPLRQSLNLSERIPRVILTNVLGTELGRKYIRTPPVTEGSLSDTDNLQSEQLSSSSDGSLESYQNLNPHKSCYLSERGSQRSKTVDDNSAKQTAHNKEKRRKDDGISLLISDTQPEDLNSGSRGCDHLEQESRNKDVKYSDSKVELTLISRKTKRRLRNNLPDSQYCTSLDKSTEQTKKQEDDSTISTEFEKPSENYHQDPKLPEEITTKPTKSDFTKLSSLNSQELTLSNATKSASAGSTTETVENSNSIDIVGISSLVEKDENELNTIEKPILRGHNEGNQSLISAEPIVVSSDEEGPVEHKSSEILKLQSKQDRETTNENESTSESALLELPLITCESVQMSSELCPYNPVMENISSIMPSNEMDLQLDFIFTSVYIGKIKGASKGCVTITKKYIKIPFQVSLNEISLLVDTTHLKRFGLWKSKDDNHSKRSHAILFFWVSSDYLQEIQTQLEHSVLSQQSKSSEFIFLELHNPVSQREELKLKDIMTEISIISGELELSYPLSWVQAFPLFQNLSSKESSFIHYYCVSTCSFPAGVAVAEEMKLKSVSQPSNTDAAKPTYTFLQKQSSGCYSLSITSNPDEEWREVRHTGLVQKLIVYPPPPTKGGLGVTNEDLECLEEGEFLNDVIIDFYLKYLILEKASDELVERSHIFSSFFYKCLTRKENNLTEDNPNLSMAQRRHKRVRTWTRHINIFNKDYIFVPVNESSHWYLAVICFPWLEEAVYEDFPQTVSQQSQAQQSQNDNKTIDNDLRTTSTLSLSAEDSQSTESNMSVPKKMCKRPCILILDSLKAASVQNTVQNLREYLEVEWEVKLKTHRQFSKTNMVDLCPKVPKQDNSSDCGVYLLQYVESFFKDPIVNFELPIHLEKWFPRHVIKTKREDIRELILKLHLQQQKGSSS

Caspase-3 = molecular target: T4, Caspase-3 (Homo sapiens, UniProt P42574); assay type: functional;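 also: Dose-response selectivity test against caspase-3 for candidate inhibitors of sentrin-specific proteases (SENPs)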
T4 sequence (P42574 whole entry): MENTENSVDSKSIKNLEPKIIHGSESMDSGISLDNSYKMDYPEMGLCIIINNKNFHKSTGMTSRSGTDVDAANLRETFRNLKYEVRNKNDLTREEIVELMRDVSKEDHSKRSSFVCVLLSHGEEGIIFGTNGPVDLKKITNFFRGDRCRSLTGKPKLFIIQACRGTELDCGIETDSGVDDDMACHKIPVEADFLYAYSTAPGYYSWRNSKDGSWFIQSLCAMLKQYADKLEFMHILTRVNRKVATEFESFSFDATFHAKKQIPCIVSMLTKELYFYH

[12] = molecular target: T5, Sentrin-specific protease 8 (Homo sapiens, UniProt Q96LD8); assay type: functional;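 also: luminescence read-out of SENP8 inhibition, dose-response confirmation following an ultra-high-throughput screen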
T5 sequence (Q96LD8 whole entry): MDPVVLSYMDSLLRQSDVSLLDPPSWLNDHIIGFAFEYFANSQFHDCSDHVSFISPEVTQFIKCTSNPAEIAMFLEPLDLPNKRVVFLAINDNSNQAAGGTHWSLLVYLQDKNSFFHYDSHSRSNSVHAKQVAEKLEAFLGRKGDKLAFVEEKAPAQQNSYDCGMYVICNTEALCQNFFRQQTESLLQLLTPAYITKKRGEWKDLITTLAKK

[13] = HEp-2 cell cytotoxicity, dose response, cytotoxicity control for RSV inhibitor project, HTS (AID 2410); assay type: functional; settings: human respiratory syncytial virus
[14] = microbe, parasite or virus in culture; assay type: functional; settings: Mycobacterium tuberculosis
[15] = cytotoxicity toward DRD oncogenic fibroblasts, dose response, cell-based, non-viral oncogenic, luminescence (AID 1934); assay type: functional; settings: Homo sapiens
Caspase-6 = molecular target: T6, Caspase-6 (Homo sapiens, UniProt P55212); assay: human caspase-6 inhibitors, dose response, biochemical, VEID-R110 fluorescence, cherry-pick (AID 720632)
T6 sequence (P55212 whole entry): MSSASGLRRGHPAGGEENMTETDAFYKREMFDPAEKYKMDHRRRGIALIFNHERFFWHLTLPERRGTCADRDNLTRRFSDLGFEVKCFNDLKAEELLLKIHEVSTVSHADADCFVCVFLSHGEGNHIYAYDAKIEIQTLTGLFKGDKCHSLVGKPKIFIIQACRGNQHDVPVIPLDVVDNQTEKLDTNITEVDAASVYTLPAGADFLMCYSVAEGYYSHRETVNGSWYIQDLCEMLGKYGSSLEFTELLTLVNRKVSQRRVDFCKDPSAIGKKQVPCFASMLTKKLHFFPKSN

[16] = Luminescence Cell-Based Dose Confirmation HTS to Identify Inhibitors of Platelet Dense Granule Release. [Related pubchem assays: 1663 (Primary HTS), 1678 (Summary of Project)]; assay type: functional
BJ [17] = assay: cells; assay type: functional, cell-based; settings: Homo sapiens
[18] = molecular target: Luciferin 4-monooxygenase (Photinus pyralis, UniProt P08659); assay: firefly luciferase enzyme inhibitors, dose response, biochemical, luminescence (AID 1891)
Sequence of Luciferin 4-monooxygenase (P08659 whole entry): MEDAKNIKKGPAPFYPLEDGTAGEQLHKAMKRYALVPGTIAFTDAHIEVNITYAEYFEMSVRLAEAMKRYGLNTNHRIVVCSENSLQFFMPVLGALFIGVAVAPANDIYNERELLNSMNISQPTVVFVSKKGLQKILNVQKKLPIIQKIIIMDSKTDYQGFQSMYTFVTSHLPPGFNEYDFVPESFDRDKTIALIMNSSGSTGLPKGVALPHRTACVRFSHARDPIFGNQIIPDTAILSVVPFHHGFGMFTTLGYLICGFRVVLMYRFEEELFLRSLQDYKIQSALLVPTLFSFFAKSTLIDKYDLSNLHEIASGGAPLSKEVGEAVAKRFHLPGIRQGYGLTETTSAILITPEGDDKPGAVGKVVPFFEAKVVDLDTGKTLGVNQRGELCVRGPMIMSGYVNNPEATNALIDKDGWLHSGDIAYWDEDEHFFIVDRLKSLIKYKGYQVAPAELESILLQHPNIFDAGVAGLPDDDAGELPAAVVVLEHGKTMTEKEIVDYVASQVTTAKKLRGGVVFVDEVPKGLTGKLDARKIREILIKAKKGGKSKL

BJ [19] = assay: cytotoxicity toward BJ-TERT-LT-ST fibroblasts, dose response, cell-based, RAS-independent, luminescence (AID 1935); assay type: functional; settings: Homo sapiens;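 also: BJ fibroblasts immortalized with TERT plus LT and ST oncogenes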
BJ [20] = assay: cytotoxicity toward BJ-TERT fibroblasts, dose response, cell-based, RAS-independent, luminescence (AID 1933); assay type: functional; settings: Homo sapiens
[21] = cytotoxicity toward NIH3T3 fibroblasts, dose response, counter-screen, cell-based, ATP luminescence, mouse fibroblasts (AID 2010); assay type: functional;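 also: cells exposed to compound for about 90 hours before reading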
[22] = inhibitors of intracellular T. cruzi replication, confirmation, NIH3T3 host cells, beta-gal luminescence (AID 2044); assay type: functional, cell-based;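 also: intracellular parasites grown in NIH/3T3 mouse fibroblasts as host cells; luminescent beta-galactosidase reporter signal from transgenic T. cruzi replicating inside host cells; inhibitors lower the luminescence signal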

## Cc1ccc(C(=O)Nc2ccc3c(c2)OCCO3)cc1
[1]
  AC50: 2.67 µM (active)
[2]
  AC50: > 52 µM (inactive)
[3]
  AC50: 4.05 µM (active)
HEK293
  AC50: 2.05 µM (active)

## Cc1nc2cc(-c3cccs3)nn2c(O)c1C
[4]
  IC50: > 3.33 µM (active)

## CCS(=O)(=O)N1N=C(c2ccc(NS(C)(=O)=O)cc2)CC1c1ccccc1 (stereo not given)
[4]
  IC50: > 0.37 µM (active)

## Sc1nnc(CCc2ccccc2)n1-c1ccc(Cl)cc1
[5]
  IC50: > 122 µM (inactive)

## COC(=O)/C=C/C(=O)Nc1cccc(C(F)(F)F)c1
HEK293
  AC50: 11.1 µM (active)

## CC(C)NC(=O)N1[C@H](CO)[C@@H](c2ccccc2)[C@@H]1CN(C)C(=O)c1cccnc1
[6]
  AC50: 0.538 µM (active)

## O=C(NNc1nc(-c2ccccc2)cs1)c1ccco1
[5]
  IC50: > 122 µM (inactive)

## O=C1C(=O)N(c2ccccc2)C(c2ccccc2)C1c1ccccc1 (stereo not given)
[4]
  IC50: > 9.99 µM (inactive)

## COCC(=O)N1CCCCN2[C@H](CO)[C@H](c3ccc(-c4cccc(C)c4)cc3)[C@@H]2C1
[1]
  AC50: 18 µM (active)
[2]
  AC50: > 52 µM (inactive)
[7]
  AC50: > 52 µM (inactive)
[3]
  AC50: 23.6 µM (active)

## CSc1nc2ccc(NC(=O)c3ccccn3)cc2s1
[1]
  AC50: 4.16 µM (active)
[7]
  AC50: > 52 µM (inactive)
[3]
  AC50: 5.41 µM (active)

## CC/N=c1\sc(C(=O)OC)cc(=O)n1CC
[8]
  EC50: > 91.2 µM (inactive)
[9]
  EC50: > 91.2 µM (inactive)

## O=C(Nc1ccccc1)N1CC=C(c2ccc(F)cc2)CC1
[10]
  IC50: 54.5 µM (active)
[11]
  IC50: 14.9 µM (active)
Caspase-3
  IC50: 34.3 µM (active)
[12]
  IC50: 86.8 µM (active)

## COc1ccc2nc3c(O)n(Cc4ccncc4)cnc-3c2c1
[4]
  IC50: 0.97 µM (active)

## C=CCn1c(C)c(C(C)=O)c(N2CCN(C(c3ccccc3)c3ccccc3)CC2)nc1=S
HEK293
  AC50: 63.8 µM (active)

## O=C1NC(=O)/C(=C/c2ccc(-c3cccc([N+](=O)[O-])c3)o2)S1
[10]
  IC50: 17 µM (active)
[11]
  IC50: 50.7 µM (active)
[13]
  CC50: 1.93 µM (active)
Caspase-3
  IC50: 13.6 µM (active)
[14]
  CC50: > 40 µM (active)
[12]
  IC50: 55.7 µM (active)

## COc1ccc(NC(=O)c2ccc(-c3ccccc3Cl)o2)cc1
[10]
  IC50: 4.21 µM (active)
[11]
  IC50: 4.54 µM (active)
Caspase-3
  IC50: 16.2 µM (active)
[12]
  IC50: > 100 µM (inactive)

## CC(C)(C)c1csc(NNC(=O)c2ccc(Cl)cc2)n1
[5]
  IC50: > 122 µM (inactive)

## Cn1c(N=Nc2ccccc2)nc2ccccc21
[15]
  EC50: 6.84 µM (inconclusive)
Caspase-6
  AC50: 38.1 µM (active)
[16]
  EC50: 1.78 µM (active)
BJ [17]
  EC50: 4.78 µM (inconclusive)
[18]
  EC50: 1.5 µM (active)
BJ [19]
  EC50: 9.38 µM (active)
BJ [20]
  EC50: 6.48 µM (active)

## COc1cc(OC)cc(-c2nc3ccccc3s2)c1
[8]
  EC50: > 91.1 µM (inactive)
[9]
  EC50: > 91.1 µM (inactive)

## O=C(Oc1c(CN2CCOCC2)cc(Cl)c2cccnc12)c1ccccc1F
[8]
  EC50: > 91.2 µM (inactive)
[9]
  EC50: > 91.2 µM (inactive)
[21]
  EC50: 8.05 µM (active)
[22]
  EC50: 1.65 µM (active)
